This note sets out measurements from patent publication US20260250289A1, “BICYCLIC HETEROCYCLES AND THEIR USE AS WRN INHIBITORS” (Novartis AG, priority 2022, published 2026).

Where two headings read alike, the source gives them in different places.

The test system of one test is SW48 cells. The experiment in a line: Proliferation assay SW48 (CellTiterGlo). The test is classed as cell-based. The settings on record: Homo sapiens, SW48, 96 h, read-out: Proliferation Assay SW48 GI50. An excerpt:
The colon carcinoma cell lines SW48 (RRID: CVCL_1724), HCT 116 (RRID: CVCL_0291) and SNU-407 (RRID: CVCL_5058) were obtained from ATCC. The WRN-knockdown insensitive colon carcinoma cell line DLD-1 (RRID: CVCL_0248) was obtained from the Korean Cell Line Bank (KCLB), and used to generate a derivative in which the endogenous WRN gene copies were knocked out by CRISPR-mediated editing using standard CRISPR methods. The resulting cell line, DLD1-WRN-KO, was used to assess potential off-target compound effects.
SW48, SNU-407 and DLD1-WRN-KO cells were cultured in growth medium composed of RPMI-1640 (Amimed Cat #1-41F22-1), 2 mM L-Glutamine (Amimed Cat #5-10K50), 10 mM HEPES (Gibco Cat #15630-056), 1 mM sodium pyruvate (Amimed Cat #5-60F00-H), 1× Penicillin-Streptomycin (Amimed Cat #4-01F00-H) and 10% fetal calf serum (Amimed Cat #2-01F30-G, Lot #LB11566P). HCT 116 cells were cultured in growth medium composed of McCoys 5A (Amimed catalog #1-18F01-1), 2 mM L-Glutamine (Amimed Cat #5-10K50), 1× Penicillin-Streptomycin (Amimed Cat #4-01F00-H) and 10% fetal calf serum (Amimed Cat #2-01F30-G, Lot #LB11566P). All cells were maintained at 37° C. in a humidified 5% CO2 incubator.
Following filtration through a Steriflip-NY 20 μm filter (Millipore Cat #SCNY00020), trypsinized cells were seeded in 100 microliters growth medium at 2,000 (SW48) or 1,500 (SNU-407, DLD1-WRN-KO, HCT 116) cells/well into white, clear-bottom 96-well plates (Costar Cat #3903). Three replicate plates were prepared for each compound treatment condition. In addition, one plate (termed “day 0”) was prepared to quantify the number of viable cells at the time of compound addition. Following overnight incubation at 37° C. in a humidified 5% CO2 atmosphere, eight 3-fold serial dilutions of a given compound stock (obtained at a concentration of 10 mM in DMSO and stored at 4° C.) were dispensed directly into each of the triplicate assay plates using a HP 300D non-contact Digital Dispenser (TECAN). The final concentration of DMSO was normalized to 0.1% in all wells. 96 hours after compound addition, cellular ATP levels as a surrogate for cell viability was assessed following addition of 50 microliters CellTiterGlo (Promega Cat #G7573) reagent and luminescence quantification on a MPLEX multi-mode plate-reader (TECAN) following a 10 minute incubation at room temperature. The number of viable cells in the “day 0” plate were quantified identically on the day of compound addition.
For data analysis, the assay background signal that was determined in wells containing medium, but no cells, was subtracted from all other data points prior to further calculations. The extent of growth inhibition and potential cell kill was assessed by comparing the ATP levels (measured using CellTiterGlo, Promega) in compound-treated cells with those present at the time of compound addition. To this end, the following conditional concept was programmatically applied in HELIOS, an in-house software applying a multi-step decision tree to arrive at optimal concentration response curve fits (Gubler et al, SLAS DOI: 10.1177/2472555217752140) to calculate % growth (% G) for each compound-treated well: % G=(T−V0)/V0))*100 when T<V0, and % G=(T−V0)/(V−V0)))*100 when T≥V0, where V0 is the viability level at time of compound addition, while V and T represent vehicle-control and compound-treated viability levels, respectively, at the end of the compound incubation. 100%, 0% and −100% signify absence of growth inhibition, growth stasis, and complete cell kill, respectively. Compound concentrations leading to half-maximal growth inhibition (GI50) and residual cell viability at the highest tested compound concentration (Data (cmax), expressed in percent) were routinely calculated. Data analysis can also be carried out using commercially available software designed to derive IC50 values using 4-parameter fits (e.g. GraphPad Prism, XL fit). […]
For orientation: In ATP-based viability assays light output follows the ATP content of the culture.

For a further test, the system named is DLD1-WRN-KO cells. The test can be described thus: Proliferation assay DLD1-WRN-KO (CellTiterGlo, off-target effects). The test is classed as cell-based. The settings on record: 96 hours, geometric mean of at least 2. As to the method: The WRN-knockdown insensitive colon carcinoma cell line DLD-1 (RRID: CVCL_0248) was obtained from the Korean Cell Line Bank (KCLB), and used to generate a derivative in which the endogenous WRN gene copies were knocked out by CRISPR-mediated editing using standard CRISPR methods. The resulting cell line, DLD1-WRN-KO, was used to assess potential off-target compound effects. […]
Three replicate plates were prepared for each compound treatment condition. In addition, one plate (termed “day 0”) was prepared to quantify the number of viable cells at the time of compound addition. Following overnight incubation at 37° C. in a humidified 5% CO2 atmosphere, eight 3-fold serial dilutions of a given compound stock (obtained at a concentration of 10 mM in DMSO and stored at 4° C.) were dispensed directly into each of the triplicate assay plates using a HP 300D non-contact Digital Dispenser (TECAN). The final concentration of DMSO was normalized to 0.1% in all wells. 96 hours after compound addition, cellular ATP levels as a surrogate for cell viability was assessed following addition of 50 microliters CellTiterGlo (Promega Cat #G7573) reagent and luminescence quantification on a MPLEX multi-mode plate-reader (TECAN) following a 10 minute incubation at room temperature. The number of viable cells in the “day 0” plate were quantified identically on the day of compound addition.
For data analysis, the assay background signal that was determined in wells containing medium, but no cells, was subtracted from all other data points prior to further calculations. The extent of growth inhibition and potential cell kill was assessed by comparing the ATP levels (measured using CellTiterGlo, Promega) in compound-treated cells with those present at the time of compound addition. […] 100%, 0% and −100% signify absence of growth inhibition, growth stasis, and complete cell kill, respectively. Compound concentrations leading to half-maximal growth inhibition (GI50) and residual cell viability at the highest tested compound concentration (Data (cmax), expressed in percent) were routinely calculated. Data analysis can also be carried out using commercially available software designed to derive IC50 values using 4-parameter fits (e.g. GraphPad Prism, XL fit). The reported GI50 values are the geometrical means of at least 2 independent replicates.

For test [1], the target named is T1, WRN helicase (aa N517-P1238) (Homo sapiens, UniProt Q14191).
T1 construct: The core helicase motif of the WRN protein (aa N517-P1238) was produced for this assay; His (N); ZZ (N); 3C protease cleavage site (N); made in house; host or cells: Sf21 insect cells (baculovirus; virus and BIICs made in SF9)
T1 sequence (Q14191 517-1238): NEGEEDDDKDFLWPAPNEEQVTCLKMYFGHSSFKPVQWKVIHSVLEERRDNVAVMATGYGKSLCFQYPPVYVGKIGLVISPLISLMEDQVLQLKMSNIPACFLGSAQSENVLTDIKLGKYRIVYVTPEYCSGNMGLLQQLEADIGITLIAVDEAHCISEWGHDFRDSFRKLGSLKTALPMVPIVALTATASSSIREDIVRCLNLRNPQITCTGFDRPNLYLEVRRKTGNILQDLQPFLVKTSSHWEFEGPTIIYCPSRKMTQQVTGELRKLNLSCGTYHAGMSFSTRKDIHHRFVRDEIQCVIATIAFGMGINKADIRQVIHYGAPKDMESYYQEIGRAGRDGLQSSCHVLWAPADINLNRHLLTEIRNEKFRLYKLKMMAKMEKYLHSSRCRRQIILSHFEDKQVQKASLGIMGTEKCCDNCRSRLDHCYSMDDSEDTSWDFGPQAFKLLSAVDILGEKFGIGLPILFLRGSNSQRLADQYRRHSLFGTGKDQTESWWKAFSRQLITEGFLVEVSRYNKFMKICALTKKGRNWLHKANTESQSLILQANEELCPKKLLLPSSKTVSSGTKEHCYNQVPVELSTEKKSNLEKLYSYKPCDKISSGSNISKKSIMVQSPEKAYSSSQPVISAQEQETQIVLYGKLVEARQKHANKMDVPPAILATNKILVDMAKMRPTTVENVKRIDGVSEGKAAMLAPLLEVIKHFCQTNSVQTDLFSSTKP
The experiment in a line: WRN ATPase assay (DNA dependent ATP hydrolysis, ADP-Glo). The test is classed as biochemical. The settings on record: 3 hours pre-incubation, 300 micromolar ATP, FLAP26 DNA; geometric mean of at least 2. An excerpt: An ATPase assay was set up to measure the DNA dependent ATP hydrolysis activity of WRN helicase. This assay was used also to assess the inhibition properties of compounds of the invention on DNA dependent WRN ATPase activity.
The core helicase motif of the WRN protein (aa N517-P1238) was produced for this assay (protein production as described above). […] The ADP-Glo assay kit (Promega, Madison, WI) allowing the quantification of ADP produced in ATP hydrolysis reactions was used for setting up this assay.
Time course experiments were first performed in order to determine the best enzymatic assay conditions (including buffer conditions, reaction time and concentrations of protein, ATP and DNA substrates). A typical reaction consists of 10 nM WRN protein, 0.2 nM FLAP26, and 300 micromolar ATP in the following assay buffer: 30 mM Tris pH7.5, 2 mM MgCl2, 0.02% BSA, 50 mM NaCl, 0.1% pluronic F127 prepared in DNAse free water.
To evaluate the inhibition properties of compounds of the invention, serial dilutions were prepared in DMSO (10 half log dilutions from a 10 mM DMSO solution). […] The reaction was stopped with the addition of 5 microliters of the first ADP-Glo reagent and incubated for one hour to remove the excess amount of ATP. Afterwards, 10 microliters of ATP detection reagent was added and incubated for an additional hour before reading. Luminescence output was recorded using Tecan 1000 reader, with 5 minutes delay before reading. Each concentration of compound was tested in duplicates in the assay plate.
Following normalization of activity values for the wells to % inhibition (% inhibition=[(high control-sample)/(high control-low control)]×100), IC50 fitting was carried out from the duplicate determinations present on each plate according to [4]. Data analysis can also be carried out using commercially available software designed to derive IC50 values using 4-parameter fits (e.g. GraphPad Prism, XL fit). The reported IC50 values are the geometrical means of at least 2 independent replicates.
A general note: ADP-Glo turns the ADP formed in a reaction into a luminescent signal.

Setting [2] is: SW48 colon carcinoma cells, 96 hours, CellTiterGlo, geometric mean of at least 2.

For `CC(=O)N1CCN(c2c(C)n(CC(=O)Nc3ccc(C(F)(F)F)cc3)c3nc(N4CCCC(F)C4)nn3c2=O)CC1` (stereo not shown) [Example 1, 2-(6-(4-acetylpiperazin-1-yl)-2-(3-fluoropiperidin-1-yl)-5-methyl-7-oxo-[1,2,4]triazolo[1,5-a]pyrimidin-4(7H)-yl)-N-(4-(trifluoromethyl)phenyl)acetamide], the results for the GI50 with SW48 cells (setting [2]) and in the test on DLD1-WRN-KO cells were 5 µM and greater than 10 µM, respectively. The half-maximal inhibitory concentration (IC50) – broadly, the concentration that inhibits the measured activity by half – in test [1] was found to be 1000 nM.

On to `CC(=O)N1CCN(c2nc3n(CC(=O)Nc4ccc(Cl)cc4)c(C)c(N4CCN(C(=O)c5ccncc5O)CC4)c(=O)n3n2)CC1` [Example 2, 2-(2-(4-acetylpiperazin-1-yl)-6-(4-(3-hydroxyisonicotinoyl)piperazin-1-yl)-5-methyl-7-oxo-[1,2,4]triazolo[1,5-a]pyrimidin-4(7H)-yl)-N-(4-chlorophenyl)acetamide], for which the GI50 in the test on SW48 cells (setting [2]) and in the test on DLD1-WRN-KO cells was greater than 10 µM in each case. Moreover, it took 300 nM to reach half-maximal inhibition in test [1] (IC50).

On to `CC(=O)N1CCN(c2c(C)n(CC(=O)Nc3ccc(Cl)cc3)c3nc(-c4ccccc4)nn3c2=O)CC1` [Example 3, 2-(6-(4-acetylpiperazin-1-yl)-5-methyl-7-oxo-2-phenyl-[1,2,4]triazolo[1,5-a]pyrimidin-4(7H)-yl)-N-(4-chlorophenyl)acetamide], for which the values for the GI50 in the test with SW48 cells (setting [2]) and with DLD1-WRN-KO cells were 3 µM and 10 µM, respectively. The midpoint of inhibition in test [1], the IC50, lay at 100 nM.

For `CC(=O)N1CCN(c2c(C)n(CC(=O)Nc3ccc(C(F)(F)F)nc3Cl)c3nc(N4CCCC(F)C4)nn3c2=O)CC1` (stereo not shown) [Example 5, 2-(6-(4-acetylpiperazin-1-yl)-2-(3-fluoropiperidin-1-yl)-5-methyl-7-oxo-[1,2,4]triazolo[1,5-a]pyrimidin-4(7H)-yl)-N-(2-chloro-6-(trifluoromethyl)pyridin-3-yl)acetamide], the GI50 in the test with SW48 cells (setting [2]) is 8 µM; with DLD1-WRN-KO cells it was greater than 10 µM. For the same compound, the IC50 in test [1] came out at 2000 nM.

With `CCc1c(N2CCN(C(=O)c3nccc4cc[nH]c34)CC2)c(=O)n2nc(C3=CCOCC3)nc2n1CC(=O)Nc1ccc(C(F)(F)F)cc1C` [Example 41, 2-(6-(4-(1H-pyrrolo[2,3-c]pyridine-7-carbonyl)piperazin-1-yl)-2-(3,6-dihydro-2H-pyran-4-yl)-5-ethyl-7-oxo-[1,2,4]triazolo[1,5-a]pyrimidin-4(7H)-yl)-N-(2-methyl-4-(trifluoromethyl)phenyl)acetamide], in the test with SW48 cells, the GI50 stood at 0.1 µM.

On to `CCc1ccc(NC(=O)Cn2c(C)c(C3CCN(C(C)=O)CC3)c(=O)n3nc(C4=CCOCC4)nc23)cc1Cl` [Example 144, 2-(6-(1-acetylpiperidin-4-yl)-2-(3,6-dihydro-2H-pyran-4-yl)-5-methyl-7-oxo-[1,2,4]triazolo[1,5-a]pyrimidin-4(7H)-yl)-N-(3-chloro-4-ethylphenyl)acetamide], for which, in the test on SW48 cells (setting [2]), the GI50 is 3 µM.

`CC(=O)N1CCC(c2c(C)n(CC(=O)Nc3ccc(C(F)(F)F)cc3)c3nc(C4=CCCCC4)nn3c2=O)CC1` [Example 145, 2-(6-(1-acetylpiperidin-4-yl)-2-(cyclohex-1-en-1-yl)-5-methyl-7-oxo-[1,2,4]triazolo[1,5-a]pyrimidin-4(7H)-yl)-N-(4-(trifluoromethyl)phenyl)acetamide]: the GI50 with SW48 cells (setting [2]) is 2 µM.

In the case of `Cc1c(N2CCN(C(=O)c3cc(F)ccc3O)CC2)c(=O)n2nc(N3CCOCC3)nc2n1CC(=O)Nc1ccc(C(F)(F)F)cc1` [Example 151, 2-(6-(4-(5-fluoro-2-hydroxybenzoyl)piperazin-1-yl)-5-methyl-2-morpholino-7-oxo-[1,2,4]triazolo[1,5-a]pyrimidin-4(7H)-yl)-N-(4-(trifluoromethyl)phenyl)acetamide], the GI50 in the test on SW48 cells (setting [2]) is 4 µM. Besides, half-maximal inhibition in test [1] (IC50) required 200 nM.

As to `Cc1c(N2CCN(C(=O)NNC(=O)C(F)(F)F)CC2)c(=O)n2nc(C3=CCOCC3)nc2n1CC(=O)Nc1ccc(C(F)(F)F)cc1` [Example 165, 2-(2-(3,6-dihydro-2H-pyran-4-yl)-5-methyl-7-oxo-6-(4-(2-(2,2,2-trifluoroacetyl)hydrazine-1-carbonyl)piperazin-1-yl)-[1,2,4]triazolo[1,5-a]pyrimidin-4(7H)-yl)-N-(4-(trifluoromethyl)phenyl)acetamide], the GI50 in the test on SW48 cells (setting [2]) was greater than 10 µM. This compound also yielded a half-maximal inhibitory concentration (IC50) in test [1] of 90 nM.
